From patent publication US8119563B2, “N-substituted azacycles” (FMC Corporation, priority 2003, dated 2012)

Tested on: tobacco budworm (Heliothis virescens [Fabricius])
Assay: surface-treated diet test, insecticidal activity against tobacco budworm
Format: in vivo
Settings: 0.25 millimoles of candidate insecticide on the surface of the diet, second instar larvae, five-day exposure; for Percent Mortality: compared to total number of insects infested; for Percent Growth Inhibition: inhibition of insect weight relative to untreated controls
Procedure, shortened: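 Second-instar larvae (~5 mg) were held five days at 25° C and 60% RH on artificial diet whose surface carried dried compound (0.25 millimolar standard rate; DMSO serial dilutions for rate series, six replicates each). Readouts: mortality and weight inhibition relative to DMSO-treated controls.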

Row | SMILES | Percent Mortality [%] | Percent Growth Inhibition [%]
1 | OC1(C(c2ccc(OC(F)(F)F)cc2)c2cc(Cl)ccc2Cl)CCN(Cc2ccc(Oc3ccccn3)cc2)CC1 (stereo not drawn) [Compound 443] | 100 | 100
2 | CCON=Cc1ccc(CN2CCC(O)(C(c3ccc(OC(F)(F)F)cc3)c3ccc(Cl)cc3Cl)CC2)cc1 (stereo not drawn) [Compound 444] | 100 | 100
3 | OC1(C(c2ccc(OC(F)(F)F)cc2)c2ccc(Cl)cc2F)CCN(Cc2ccc(Oc3ccccn3)cc2)CC1 (stereo not drawn) [Compound 445] | 100 | 100
4 | OC1(C(c2ccc3c(c2)OC(F)(F)O3)c2ccc3c(c2)OC(F)(F)O3)CCN(Cc2ccc(Oc3ccccn3)cc2)CC1 [Compound 446] | 100 | 100
5 | COc1cc(CN2CCC(O)(C(c3ccc(OC(F)(F)F)cc3)c3ccc(OC(F)(F)F)cc3)CC2)ccc1Oc1ccccn1 [Compound 447] | 100 | 100
6 | OCC1(C(c2ccc(C(F)(F)F)cc2)c2ccc(C(F)(F)F)cc2)CCN(Cc2ccc(Oc3ncccn3)cc2)CC1 [Compound 448] | 0 | 96
7 | [N-]=[N+]=NCC1(C(c2ccc(C(F)(F)F)cc2)c2ccc(C(F)(F)F)cc2)CCN(Cc2ccc(OCC3CC3)cc2)CC1 [Compound 449] | 0 | 78
8 | NCC1(C(c2ccc(C(F)(F)F)cc2)c2ccc(C(F)(F)F)cc2)CCN(Cc2ccc(OCC3CC3)cc2)CC1 [Compound 450] | 50 | 100
9 | CC(=O)NCC1(C(c2ccc(C(F)(F)F)cc2)c2ccc(C(F)(F)F)cc2)CCN(Cc2ccc(Oc3ncccn3)cc2)CC1 [Compound 451] | 0 | 100
10 | CC(=O)OCC1(C(c2ccc(C(F)(F)F)cc2)c2ccc(C(F)(F)F)cc2)CCN(Cc2ccc(Oc3ncccn3)cc2)CC1 [Compound 452] | 0 | 100
11 | CCON=Cc1ccc(C[N+]2([O-])CCC(O)(C(c3ccc(OC(F)(F)F)cc3)c3ccc(Cl)cc3Cl)CC2)cc1 (stereo not drawn) [Compound 453] | 100 | 100
12 | [O-][N+]1(Cc2ccc(Oc3ccccn3)cc2)CCC(O)(C(c2ccc(OC(F)(F)F)cc2)c2ccc(Cl)cc2Cl)CC1 (stereo not drawn) [Compound 454] | 100 | 100
13 | [O-][N+]1(Cc2ccc(Oc3ccccn3)cc2)CCC(O)(C(c2ccc(OC(F)(F)F)cc2)c2ccc(Cl)c(Cl)c2)CC1 (stereo not drawn) [Compound 455] | 100 | 100
14 | [O-][N+]1(Cc2ccc(Oc3ccccn3)cc2)CCC(O)(C(c2ccc(OC(F)(F)F)cc2)c2cccc(Cl)c2Cl)CC1 (stereo not drawn) [Compound 456] | 100 | 100
15 | [O-][N+]1(Cc2ccc(Oc3ccccn3)cc2)CCC(O)(C(c2ccc(OC(F)(F)F)cc2)c2cc(Cl)cc(Cl)c2)CC1 (stereo not drawn) [Compound 457] | 100 | 100
16 | [O-][N+]1(Cc2ccc(Oc3ccccn3)cc2)CCC(O)(C(c2ccc(OC(F)(F)F)cc2)c2cccc(Cl)c2)CC1 (stereo not drawn) [Compound 458] | 100 | 100
17 | [O-][N+]1(Cc2ccc(Oc3ccccn3)cc2)CCC(O)(C(c2ccc(OC(F)(F)F)cc2)c2ccccc2Cl)CC1 (stereo not drawn) [Compound 459] | 100 | 100
18 | [O-][N+]1(Cc2ccc(Oc3ccccn3)cc2)CCC(O)(C(c2ccc(OC(F)(F)F)cc2)c2cc(Cl)ccc2Cl)CC1 (stereo not drawn) [Compound 460] | 100 | 100
19 | Cc1cc(Cl)ccc1C(c1ccc(OC(F)(F)F)cc1)C1(O)CC[N+]([O-])(Cc2ccc(Oc3ccccn3)cc2)CC1 (stereo not drawn) [Compound 461] | 100 | 100
20 | Cc1cc(C(c2ccc(OC(F)(F)F)cc2)C2(O)CC[N+]([O-])(Cc3ccc(Oc4ccccn4)cc3)CC2)ccc1Cl (stereo not drawn) [Compound 462] | 100 | 100
21 | [O-][N+]1(Cc2ccc(Oc3ccccn3)cc2)CCC(O)(C(c2ccc(OC(F)(F)F)cc2)c2ccc(Cl)cc2F)CC1 (stereo not drawn) [Compound 463] | 100 | 100

Row | SMILES | Percent Mortality [%] | Percent Growth Inhibition [%]
22 | [O-][N+]1(Cc2ccc(Oc3ccccn3)cc2)CCC(O)(C(c2ccc3c(c2)OC(F)(F)O3)c2ccc3c(c2)OC(F)(F)O3)CC1 (stereo not drawn) [Compound 464] | 100 | 100
23 | COc1cc(C[N+]2([O-])CCC(O)(C(c3ccc(OC(F)(F)F)cc3)c3ccc(OC(F)(F)F)cc3)CC2)ccc1Oc1ccccn1 (stereo not drawn) [Compound 465] | 100 | 100
24 | CC(=O)NCC1(C(c2ccc(C(F)(F)F)cc2)c2ccc(C(F)(F)F)cc2)CC[N+]([O-])(Cc2ccc(Oc3ncccn3)cc2)CC1 (stereo not drawn) [Compound 466] | 17 | 100
25 | [N-]=[N+]=NCC1(C(c2ccc(C(F)(F)F)cc2)c2ccc(C(F)(F)F)cc2)CC[N+]([O-])(Cc2ccc(OCC3CC3)cc2)CC1 (stereo not drawn) [Compound 467] | 50 | 100
26 | CC(=O)OCC1(C(c2ccc(C(F)(F)F)cc2)c2ccc(C(F)(F)F)cc2)CC[N+]([O-])(Cc2ccc(Oc3ncccn3)cc2)CC1 (stereo not drawn) [Compound 468] | 17 | 100
27 | OC(COc1ccc(Cl)cc1)CN1CCC(O)(C(c2ccc(OC(F)(F)F)cc2)c2ccc(OC(F)(F)F)cc2)CC1 (stereo not drawn) [Compound 470] | 17 | 89
28 | OC(COc1cccc(Cl)c1)CN1CCC(O)(C(c2ccc(OC(F)(F)F)cc2)c2ccc(OC(F)(F)F)cc2)CC1 (stereo not drawn) [Compound 471] | 0 | 82
29 | OC(COc1ccccc1Cl)CN1CCC(O)(C(c2ccc(OC(F)(F)F)cc2)c2ccc(OC(F)(F)F)cc2)CC1 (stereo not drawn) [Compound 472] | 17 | 93
30 | OC1(C(c2ccc(OC(F)(F)F)cc2)c2ccc(OC(F)(F)F)cc2)CCN(CCCOc2ccc(Cl)cc2)CC1 [Compound 473] | 100 | 100
31 | OC1(C(c2ccc(OC(F)(F)F)cc2)c2ccc(OC(F)(F)F)cc2)CCN(CCc2ccc(Cl)cc2)CC1 [Compound 474] | 83 | 100
32 | OC1(C(c2ccc(OC(F)(F)F)cc2)c2ccc(OC(F)(F)F)cc2)CCN(CCOc2ccc(Cl)cc2)CC1 [Compound 475] | 100 | 100
33 | OC1(C(c2ccc(OC(F)(F)F)cc2)c2ccc(OC(F)(F)F)cc2)CCN(CCCCOc2ccc(Cl)cc2)CC1 [Compound 476] | 67 | 100
34 | OC1(C(c2ccc(OC(F)(F)F)cc2)c2ccc(OC(F)(F)F)cc2)CCN(CCOc2ccc(Br)cc2)CC1 [Compound 477] | 100 | 100
35 | [O-][N+]1(CCOc2ccc(Cl)cc2)CCC(O)(C(c2ccc(OC(F)(F)F)cc2)c2ccc(OC(F)(F)F)cc2)CC1 (stereo not drawn) [Compound 478] | 100 | 100
36 | [O-][N+]1(CCc2ccc(Cl)cc2)CCC(O)(C(c2ccc(OC(F)(F)F)cc2)c2ccc(OC(F)(F)F)cc2)CC1 (stereo not drawn) [Compound 479] | 100 | 100
37 | [O-][N+]1(CCCCOc2ccc(Cl)cc2)CCC(O)(C(c2ccc(OC(F)(F)F)cc2)c2ccc(OC(F)(F)F)cc2)CC1 (stereo not drawn) [Compound 480] | 100 | 100
38 | [O-][N+]1(CCCOc2ccc(Cl)cc2)CCC(O)(C(c2ccc(OC(F)(F)F)cc2)c2ccc(OC(F)(F)F)cc2)CC1 (stereo not drawn) [Compound 481] | 100 | 100
39 | [O-][N+]1(CCOc2ccc(Br)cc2)CCC(O)(C(c2ccc(OC(F)(F)F)cc2)c2ccc(OC(F)(F)F)cc2)CC1 (stereo not drawn) [Compound 482] | 100 | 100
40 | CCON=Cc1ccc(C[N+]2(O)CCC(O)(C(c3ccc(OC(F)(F)F)cc3)c3ccc(OC(F)(F)F)cc3)CC2)cc1.O=S(=O)([O-])CCCO (stereo not drawn) [Compound 483] | 100 | 100
41 | CCOC(C)C(=O)[O-].CCON=Cc1ccc(C[N+]2(O)CCC(O)(C(c3ccc(OC(F)(F)F)cc3)c3ccc(OC(F)(F)F)cc3)CC2)cc1 (stereo not drawn) [Compound 484] | 100 | 100
42 | CCCCC(CC)C(=O)[O-].OC1(C(c2ccc(OC(F)(F)F)cc2)c2ccc(OC(F)(F)F)cc2)CC[N+](O)(Cc2ccc(Oc3ccc(Cl)nn3)cc2)CC1 (stereo not drawn) [Compound 485] | 100 | 100
